Patent US20090156518A1, “STABLE PHARMACEUTICAL COMPOSITION COMPRISING BETA-LACTAM ANTIBIOTIC AND BUFFER” (priority 2006, published 2009)

Assay: amounts of β-lactam antibiotic, β-lactamase inhibitor (C18 reverse-phase LC, UV-VIS) and aminoglycoside (HPLC-ELSD) in solution over time
Type: physicochemical
Description: The amounts of β-lactam antibiotics and β-lactamase inhibitor were determined using C18 reverse-phase LC and UV-VIS detector (Tianjin Hemay BioTech Co., Ltd., analysis method No. HM-K-03). The content of aminoglycoside antibiotics was measured using reverse-phase HPLC and evaporation-light-scattering detector (ELSD detector) (Tianjin Hemay BioTech Co., Ltd., analysis method No. HM-K-08). The amount of antibiotic component at each time point was expressed as a percentage with respect to the amount at the initial time (herein defined as 100%). The relative amount of each antibiotic component in the composition at each time point was expressed as peak area ratio with respect to the corresponding peak area of an external standard.

CO/N=C(\C(=O)N[C@@H]1C(=O)N2C(C(=O)O)=C(CSc3nc(=O)c(=O)[nH]n3C)CS[C@H]12)c1csc(N)n1 [Ceftriaxone sodium]
amount of component as percentage with respect to the amount at the initial time (Example 7: ceftriaxone sodium 4 g, sulbactam sodium 1 g, gentamicin sulfate 80 mg, citrate pH 6.75, 200 mL water, room temperature (22° C.), Time 0 h): 97.01% | amount of component as percentage with respect to the amount at the initial time (Example 7: ceftriaxone sodium 4 g, sulbactam sodium 1 g, gentamicin sulfate 80 mg, citrate pH 6.75, 200 mL water, room temperature (22° C.), Time 1 h): 100.3% | amount of component as percentage with respect to the amount at the initial time (Example 7: ceftriaxone sodium 4 g, sulbactam sodium 1 g, gentamicin sulfate 80 mg, citrate pH 6.75, 200 mL water, room temperature (22° C.), Time 2 h): 96.40% | amount of component as percentage with respect to the amount at the initial time (Example 7: ceftriaxone sodium 4 g, sulbactam sodium 1 g, gentamicin sulfate 80 mg, citrate pH 6.75, 200 mL water, room temperature (22° C.), Time 4 h): 99.01% | amount of component as percentage with respect to the amount at the initial time (Example 7: ceftriaxone sodium 4 g, sulbactam sodium 1 g, gentamicin sulfate 80 mg, citrate pH 6.75, 200 mL water, room temperature (22° C.), Time 6 h): 98.91% | amount of component as percentage with respect to the amount at the initial time (Example 7: ceftriaxone sodium 4 g, sulbactam sodium 1 g, gentamicin sulfate 80 mg, citrate pH 6.75, 200 mL water, room temperature (22° C.), Time 8 h): 99.53% | amount of component as percentage with respect to the amount at the initial time (Example 8: freeze-dried ceftriaxone sodium, tazobactam sodium, gentamicin sulfate, citrate pH 6.75, 2.5% fructose, 7 days 0° C., in 100 mL water, Time 0 h): 98.75% | amount of component as percentage with respect to the amount at the initial time (Example 8: freeze-dried ceftriaxone sodium, tazobactam sodium, gentamicin sulfate, citrate pH 6.75, 2.5% fructose, 7 days 0° C., in 100 mL water, Time 1 h): 100.1% | amount of component as percentage with respect to the amount at the initial time (Example 8: freeze-dried ceftriaxone sodium, tazobactam sodium, gentamicin sulfate, citrate pH 6.75, 2.5% fructose, 7 days 0° C., in 100 mL water, Time 2 h): 99.97% | amount of component as percentage with respect to the amount at the initial time (Example 8: freeze-dried ceftriaxone sodium, tazobactam sodium, gentamicin sulfate, citrate pH 6.75, 2.5% fructose, 7 days 0° C., in 100 mL water, Time 4 h): 98.87% | amount of component as percentage with respect to the amount at the initial time (Example 8: freeze-dried ceftriaxone sodium, tazobactam sodium, gentamicin sulfate, citrate pH 6.75, 2.5% fructose, 7 days 0° C., in 100 mL water, Time 6 h): 99.27% | amount of component as percentage with respect to the amount at the initial time (Example 8: freeze-dried ceftriaxone sodium, tazobactam sodium, gentamicin sulfate, citrate pH 6.75, 2.5% fructose, 7 days 0° C., in 100 mL water, Time 8 h): 100.5% | amount of component as percentage with respect to the amount at the initial time (Example 9: freeze-dried ceftriaxone sodium, citrate pH 6.75, 7 days 0° C., in 100 mL 5% fructose solution, Time 0 h): 97.27% | amount of component as percentage with respect to the amount at the initial time (Example 9: freeze-dried ceftriaxone sodium, citrate pH 6.75, 7 days 0° C., in 100 mL 5% fructose solution, Time 1 h): 99.38% | amount of component as percentage with respect to the amount at the initial time (Example 9: freeze-dried ceftriaxone sodium, citrate pH 6.75, 7 days 0° C., in 100 mL 5% fructose solution, Time 2 h): 99.95% | amount of component as percentage with respect to the amount at the initial time (Example 9: freeze-dried ceftriaxone sodium, citrate pH 6.75, 7 days 0° C., in 100 mL 5% fructose solution, Time 4 h): 97.81% | amount of component as percentage with respect to the amount at the initial time (Example 9: freeze-dried ceftriaxone sodium, citrate pH 6.75, 7 days 0° C., in 100 mL 5% fructose solution, Time 6 h): 99.03% | amount of component as percentage with respect to the amount at the initial time (Example 9: freeze-dried ceftriaxone sodium, citrate pH 6.75, 7 days 0° C., in 100 mL 5% fructose solution, Time 8 h): 98.51% | amount of component as percentage with respect to the amount at the initial time (Example 19: ceftriaxone sodium 2 g, sulbactam sodium 2 g, gentamicin sulfate 160 mg, citrate pH 6.75, 200 mL water, room temperature, Time 0 h): 97.01% | amount of component as percentage with respect to the amount at the initial time (Example 19: ceftriaxone sodium 2 g, sulbactam sodium 2 g, gentamicin sulfate 160 mg, citrate pH 6.75, 200 mL water, room temperature, Time 1 h): 100.3% | amount of component as percentage with respect to the amount at the initial time (Example 19: ceftriaxone sodium 2 g, sulbactam sodium 2 g, gentamicin sulfate 160 mg, citrate pH 6.75, 200 mL water, room temperature, Time 2 h): 96.40% | amount of component as percentage with respect to the amount at the initial time (Example 19: ceftriaxone sodium 2 g, sulbactam sodium 2 g, gentamicin sulfate 160 mg, citrate pH 6.75, 200 mL water, room temperature, Time 4 h): 99.01% | amount of component as percentage with respect to the amount at the initial time (Example 19: ceftriaxone sodium 2 g, sulbactam sodium 2 g, gentamicin sulfate 160 mg, citrate pH 6.75, 200 mL water, room temperature, Time 6 h): 98.91% | amount of component as percentage with respect to the amount at the initial time (Example 19: ceftriaxone sodium 2 g, sulbactam sodium 2 g, gentamicin sulfate 160 mg, citrate pH 6.75, 200 mL water, room temperature, Time 8 h): 99.53% | amount of component as percentage with respect to the amount at the initial time (Example 20: ceftriaxone sodium 2 g, tazobactam sodium 2 g, gentamicin sulfate 160 mg, citrate pH 6.75, 200 mL water, room temperature, Time 0 h): 98.75% | amount of component as percentage with respect to the amount at the initial time (Example 20: ceftriaxone sodium 2 g, tazobactam sodium 2 g, gentamicin sulfate 160 mg, citrate pH 6.75, 200 mL water, room temperature, Time 1 h): 100.1% | amount of component as percentage with respect to the amount at the initial time (Example 20: ceftriaxone sodium 2 g, tazobactam sodium 2 g, gentamicin sulfate 160 mg, citrate pH 6.75, 200 mL water, room temperature, Time 2 h): 99.97% | amount of component as percentage with respect to the amount at the initial time (Example 20: ceftriaxone sodium 2 g, tazobactam sodium 2 g, gentamicin sulfate 160 mg, citrate pH 6.75, 200 mL water, room temperature, Time 4 h): 98.87% | amount of component as percentage with respect to the amount at the initial time (Example 20: ceftriaxone sodium 2 g, tazobactam sodium 2 g, gentamicin sulfate 160 mg, citrate pH 6.75, 200 mL water, room temperature, Time 6 h): 99.27% | amount of component as percentage with respect to the amount at the initial time (Example 20: ceftriaxone sodium 2 g, tazobactam sodium 2 g, gentamicin sulfate 160 mg, citrate pH 6.75, 200 mL water, room temperature, Time 8 h): 100.5%

CO/N=C(\C(=O)N[C@@H]1C(=O)N2C(C(=O)O)=C(CSc3nc(C)c(CC(=O)O)s3)CS[C@H]12)c1csc(N)n1 [Cefodizime sodium]
amount of component as percentage with respect to the amount at the initial time (Example 12: freeze-dried cefodizime sodium, citrate pH 6.75, 7 days 0° C., in 100 mL 5% fructose + etimicin sulfate 200 mg, Time 0 h): 99.01% | amount of component as percentage with respect to the amount at the initial time (Example 12: freeze-dried cefodizime sodium, citrate pH 6.75, 7 days 0° C., in 100 mL 5% fructose + etimicin sulfate 200 mg, Time 1 h): 103.8% | amount of component as percentage with respect to the amount at the initial time (Example 12: freeze-dried cefodizime sodium, citrate pH 6.75, 7 days 0° C., in 100 mL 5% fructose + etimicin sulfate 200 mg, Time 2 h): 98.33% | amount of component as percentage with respect to the amount at the initial time (Example 12: freeze-dried cefodizime sodium, citrate pH 6.75, 7 days 0° C., in 100 mL 5% fructose + etimicin sulfate 200 mg, Time 4 h): 98.99% | amount of component as percentage with respect to the amount at the initial time (Example 12: freeze-dried cefodizime sodium, citrate pH 6.75, 7 days 0° C., in 100 mL 5% fructose + etimicin sulfate 200 mg, Time 6 h): 97.89% | amount of component as percentage with respect to the amount at the initial time (Example 12: freeze-dried cefodizime sodium, citrate pH 6.75, 7 days 0° C., in 100 mL 5% fructose + etimicin sulfate 200 mg, Time 8 h): 92.52% | amount of component as percentage with respect to the amount at the initial time (Example 18: cefodizime sodium 1 g, etimicin sulfate 200 mg, citrate pH 6.75, 200 mL water, room temperature, Time 0 h): 99.01% | amount of component as percentage with respect to the amount at the initial time (Example 18: cefodizime sodium 1 g, etimicin sulfate 200 mg, citrate pH 6.75, 200 mL water, room temperature, Time 1 h): 103.8% | amount of component as percentage with respect to the amount at the initial time (Example 18: cefodizime sodium 1 g, etimicin sulfate 200 mg, citrate pH 6.75, 200 mL water, room temperature, Time 2 h): 98.33% | amount of component as percentage with respect to the amount at the initial time (Example 18: cefodizime sodium 1 g, etimicin sulfate 200 mg, citrate pH 6.75, 200 mL water, room temperature, Time 4 h): 98.99% | amount of component as percentage with respect to the amount at the initial time (Example 18: cefodizime sodium 1 g, etimicin sulfate 200 mg, citrate pH 6.75, 200 mL water, room temperature, Time 6 h): 97.89% | amount of component as percentage with respect to the amount at the initial time (Example 18: cefodizime sodium 1 g, etimicin sulfate 200 mg, citrate pH 6.75, 200 mL water, room temperature, Time 8 h): 92.52%
